Results from US20100069345A1, “Lanthanide-porphyrin complexes as anti-tumor agents” (priority 2005, published 2010).

What was measured:
[1] = tested on: human coloadenocarcinoma cells (HCT-8); assay: MTT cell viability assay, HCT-8; assay type: cell-based
Source text: (§1) Human cervical epitheloid carcinoma cells (HeLa), human hepatocellular carcinoma cells (HepG2 and Hep3B), human breast cancer cells (MCF-7), human coloadenocarcinoma cells (HCT-8), and normal human lung fibroblast cells (CCD-19Lu) were purchased from American Type Culture Collection (ATCC) Rockville, Md., USA. The human hepatocellular cancinoma cells QGY-7703, and the multi-drug resistant cell line QGY-TR50 derived from QGY-7703, were generously provided by Prof. Yong Xie (The Hong Kong University of Science and Technology, Hong Kong PRC). QGY-TR50 cells were isolated and cultured as described (J. Zhou, S. C. Cheng, D. Luo, Y. Xie Biochem. Biophys. Res. Commun. 2001, 280, 1237-1242). Human nasopharyngeal carcinoma cells (SUNE1 and its cisplatin-resistant variant—CNE2) were derived from poorly differentiated NPC in Chinese patients and were generously provided by Dr. S. W. Tsao (The University of Hong Kong, Hong Kong PRC). Cell culture flasks and 96-well microtitre plates were from Nalge Nunc Int. Culture medium, other medium constituents and phosphate buffer saline (PBS) were obtained by Gibco BRL Rockville, Md., USA. Cell Proliferation kit I (MTT) was purchased from Roche. Mannheim, Germany.

[2] = tested on: multi-drug resistant cell line QGY-TR50; assay: MTT cell viability assay, QGY-TR50; assay type: cell-based, human
Source text: as §1

[3] = Stability by UV-visible in DMSO/Tris buffer; assay type: physicochemical; conditions: DMSO/Tris buffer solution (1:9), 24 h, room temperature; complex 1 3 μM, complex 2b 7 μM
Description: UV-visible experiments. The absorption spectra of 3 μM of complex 1 in DMSO/Tris buffer solution (1:9) were monitored for 24 h. […] The complex was monitored over 24 h at room temperature and about 23% decrease in the Soret band intensity was recorded without any significant spectral shift in both Soret and Q-bands (FIG. 5). The absorption spectra of 7 μM of complex 2b in DMSO/Tris buffer solution (1:9) were also monitored for 24 h.

Caspase 3 = assay: Western blotting analysis, caspase 3; assay type: cell-based, human; conditions: HeLa, 2 μM, 32 h
Description: Cells were washed in cold phosphate-buffered saline (PBS) at 4° C. and lysed in a buffer containing 0.05 M Tis.HCl (pH 7.5), 0.25 M NaCl, 0.005 M EDTA, 0.05 M NaF, 1 mM DTT and 1% Triton. Cell lysates were collected and the protein concentration of cell lysates was measured using a Protein detection kit (Bio-Rad). Equal amount of proteins was resolved in a 12% SDS-PAGE gel and transferred onto nitrocellulose membranes. The membrane was blocked with a blocking solution (1×TBS, 0.1% Tween-20 with 5% non-fat dry milk) at room temperature for 1 h, and washed three times with washing buffer (1×TBS, 0.1% Tween-20) for 5 min each. The membrane was then incubated with primary antibody (Caspase 3, Bid, PARP and β-Actin respectively) for overnight at 4° C. The membrane was washed three times with washing buffer for 5 min each before incubation with the corresponding secondary antibody (horse anti-mouse IgG or goat anti-rabbit IgG). Membrane was washed again and signals were detected using an ECL detection kit (Amersham Pharmacia Biotech) followed by the exposure to X-ray films (Fujifilm).
After treatment with complex 1 for different time intervals, the expressions of caspase 3, Bid and PARP were detected by the Western blotting analysis. […] Moreover, treatment with complex 1 leads to a reduction in the level of un-cleaved Bid.

[4] = tested on: multi-drug resistant liver tumor cells (QGY-TR50); assay: Murine xenograft tumor model; assay type: in vivo, mouse; conditions: 10 mg/kg/day i.p. daily for 22 days, nude mice, vs control group
Description: The murine model for anti-tumor evaluation in vivo was the male BALB/c-nu/nu mouse originated from Charles River Laboratories, Inc. and the colony was maintained in the Laboratory Animal Unit, The University of Hong Kong. Mice were grafted in the left flank with QGY-TR50 cells subcutaneously. All of the experiments were carried out according to the guidelines of the Committee on the Use of Live Animals in Teaching and Research, The University of Hong Kong.
The anti-tumor effect of complex 1 was examined in the xenograft mice model. A complex 1 suspension was prepared by dissolving the complex in 1% EtOH and mixed with a solution containing 0.2% sodium carboxymethyl cellulose (Sigma) and 0.1% Tween 80 (Sigma) in PBS. A dose tolerance test was conducted to determine the appropriate dose ranges for complex 1. […] The dimensions of the tumors were measured twice weekly with calipers, and tumor volumes were estimated using two-dimensional measurements of length and width and calculated with the formula [l×(w)^2]×0.52 (l, length; w, width) according to described procedures (M. Guba, P. von Breitenbuch, M. Steinbauer, G. Koehl, S. Flegel, M. Hornung, C. J. Bruns, C. Zuelke, S. Farkas, M. Anthuber, K. W. Jauch, E. K. Geissler, Nat Med 2002, 8, 128-135). The weights of the mice were also recorded twice weekly throughout the course of treatment. […]

[5] = IC50 of cisplatin divided by IC50 of complex

[Yb2(OEP)2](μ-OH)2 [Complex 1]
IC50 ratio cisplatin/complex, HCT-8 [1, 5]: 11.6
IC50 ([1]; MTT, 37° C., 48 h, mean ± SD): 2270 ± 600 nM
IC50 ratio cisplatin/complex, QGY-TR50 [2, 5]: 60.3
IC50 ([2]; MTT, 37° C., 48 h, mean ± SD): 540 nM
decrease in Soret band intensity [3]: about 23%
expression of caspase 3 (Caspase 3): decrease dramatically
inhibition of the tumor volume [4]: 40%
